Measured values taken from ChEMBL document CHEMBL1131747, “Derivation of a possible transition-state for the reaction catalysed by the enzyme estrone Sulfatase (ES)” (Bioorg Med Chem Lett, 1999).

What follows are molecules tested against T1, Steryl-sulfatase (Homo sapiens, UniProt P08842) (assay: Inhibitory activity against estrone sulfatase enzyme).
T1 sequence (P08842 whole entry): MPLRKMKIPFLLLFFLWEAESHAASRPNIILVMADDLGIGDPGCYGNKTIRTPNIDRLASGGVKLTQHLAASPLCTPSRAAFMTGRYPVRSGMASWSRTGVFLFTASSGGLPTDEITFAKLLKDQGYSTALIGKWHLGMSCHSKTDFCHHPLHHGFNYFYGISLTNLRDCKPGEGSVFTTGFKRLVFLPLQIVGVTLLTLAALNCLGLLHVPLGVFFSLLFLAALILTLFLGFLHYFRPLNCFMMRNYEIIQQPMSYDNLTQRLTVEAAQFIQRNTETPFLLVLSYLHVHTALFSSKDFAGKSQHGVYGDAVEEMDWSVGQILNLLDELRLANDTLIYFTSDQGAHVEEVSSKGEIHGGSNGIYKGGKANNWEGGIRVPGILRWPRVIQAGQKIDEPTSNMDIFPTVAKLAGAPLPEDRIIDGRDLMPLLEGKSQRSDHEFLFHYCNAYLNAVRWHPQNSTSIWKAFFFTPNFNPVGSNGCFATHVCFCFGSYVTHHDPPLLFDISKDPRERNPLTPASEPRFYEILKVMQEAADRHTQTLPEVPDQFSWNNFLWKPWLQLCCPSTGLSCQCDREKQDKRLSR

Structure (SMILES)	IC50 [nM]
NS(=O)(=O)Oc1ccc2c(c1)CCCC2	1000
C[C@]12CC[C@@H]3c4ccc(OS(N)(=O)=O)cc4CCC3[C@@H]1CCC2=O (single isomer, unassigned) [EMATE]	0.065
CCCCCCCCCCCCCC(=O)NCCc1ccc(OS(N)(=O)=O)cc1	55.8
